Results taken from US8048880B2, “Treatment of cardiovascular disease and dyslipidemia using secretory phospholipase A2 (SPLA2) inhibitors and SPLA2 inhibitor combination therapies” (Anthera Pharmaceuticals, Inc., priority 2007, dated 2011).

How the values were obtained:
Assay type in all cases: in vivo
[1] = test system: human subjects with CVD, specifically stable coronary artery disease; test: Serum lipid levels in humans, A-002 twice a day for eight weeks (Example 4)
Experimental: 204 human subjects from the United States with CVD, specifically stable coronary artery disease, were randomized to receive placebo or A-002 via oral administration twice a day over an eight week administration period at dosages of 50 mg, 100 mg, 250 mg, or 500 mg. Levels of various lipids and inflammatory markers were measured at the outset of the trial and at the end of weeks four and/or eight. For data sets with a normal distribution, mean levels of lipids or inflammatory markers were analyzed. For data sets with non-normal distribution, median levels were analyzed. […] In addition, administration of A-002 decreased median levels of CRP (Table 11).
The combined effect of A-002 and statin administration on LDL levels was tested in a population of 332 subjects. This population consisted of the original 204 United States subjects, plus an additional 128 subjects from the Ukraine with stable CAD that received placebo or A-002 based according to the same protocol as the United States subjects. […] Similarly, A-002 decreased LDL levels in subjects receiving a variety of non-statin compounds used in the treatment of CVD, including ezetimibe, AEGR-733/ezetimibe, colesevelam hydrochloride (WelChol®), MK-0524A (Cordaptive®), lisinopril/MC-1 antibody (MC-4232), and Angiotensin Receptor Blocker (ARB)/MC-1 (MC-4262).

ApoE−/− mice [2] = test: Plasma total cholesterol and HDL levels in ApoE−/− mice, A-002 and/or statin (Example 3); conditions: 0.02 g/kg pravastatin in diet alone, 12 weeks
Experimental: (§1) Body weight, plasma total cholesterol, and plasma HDL levels were measured for six groups of twelve ApoE^−/− mice. The mice were then placed on a high fat diet for twelve weeks to allow for formation of significant fatty atherosclerotic plaques. The high fat diet was a modified version of the Western diet (TD.88137, Harlan Teklad, Madison, Wis.) consisting of casein (195 g/kg), DL-methionine (3 g/kg), sucrose (341.44 g/kg), corn starch (150 g/kg), anhydrous milkfat (210 g/kg), cholesterol (1.5 g/kg), cellulose (50 g/kg), mineral mix AlN-76 (Teklad; 35 g/kg), calcium carbonate (4 g/kg), vitamin mix (Teklad #40060; 10 g/kg), ethyoxyquin (antioxidant, 0.04 g/kg), and either 0.0156 g/kg (“low dose”) A-002 (Group A), 1.56 g/kg (“high dose”) A-002 (Group B), 0.02 g/kg pravastatin (Group C), low dose A-002 plus 0.02 g/kg pravastatin (Group D), high dose A-002 plus 0.02 g/kg pravastatin (Group E), or vehicle only (Group F). Mice were administered diets A-F in a blinded manner, and food was provided ad libitum. The diet was initially prepared based on the assumption that each mouse weighed 22.5 g and ate 4.5 g/day. Based on body weight and food consumption, the diet was modified over the 12 week course of treatment to adjust for a body weight of 26 g and a food intake of 2.5 g/day. The dosages of A-002 were selected to cover a range of 100-fold based on pharmacokinetics in ApoE^−/− mice as well as toxicology and previously observed efficacy in this model.
Plasma total cholesterol and HDL levels were measured. Mean levels of total cholesterol were decreased in mice administered A-002 alone or in combination with statin (Table 3, FIG. 6). […] Mean levels of HDL were increased in mice administered A-002 at either dosage (Table 4). This increase was greater in mice administered high dose A-002 plus statin than in mice administered high dose A-002 or statin alone (Table 4 compare Group E vs. Groups B and C; FIG. 7).

ApoE−/− mice [3] = test: En face lesion size in ApoE−/− mice on high fat diet, A-002 and/or statin (Example 3); conditions: 0.02 g/kg pravastatin in diet alone, 12 weeks
Experimental: as §1
After twelve weeks, mice were sacrificed and plasma, heart tissue, and aortic tissue were collected. En face lesion size was determined via digital imaging analysis. Plaque content (as measured as en face lesion) was reduced in mice administered A-002 alone, statin alone, or A-002 in combination with statin. The reduction in plaque content in mice administered A-002 plus statin was substantially greater than the reduction in mice administered either compound alone (Table 2, compare Group D vs. Groups A and C; Group E vs. Groups B and C). Further, the reduction in plaque content in mice administered A-002 plus statin was substantially greater than the sum of the reduction in plaque content in mice administered A-002 alone and mice administered statin alone.

[4] = summary Table 20, A-002 alone, statin alone or A-002 plus statin

| SMILES | Observed change following administration: Mean serum [LDL] at week 8 ([1]; summary Table 22, A-002 alone, ezetimibe alone or A-002 plus ezetimibe) [%] | Mean HDL concentration (ApoE−/− mice [2]) [mg/dL] | Mean total cholesterol concentration (ApoE−/− mice [2]) [mg/dL] | increase of mean serum small LDL particle levels ([1]; at eight weeks, United States population, statin alone (Table 14)) [%] | decrease of mean serum LDL levels ([1]; at eight weeks, United States subjects with baseline LDL of 72 mg/dl or greater, text restating Tables 15 and 19) [%] | decrease of mean serum LDL levels ([1]; at week eight, combined United States and Ukraine populations, Tables 16 and 18) [%] | decrease of mean serum LDL levels ([1]; at week four, combined United States and Ukraine populations, Tables 16 and 18) [%] | Observed change following administration: Mean serum [LDL] at week 4 [1, 4] [%] | Observed change following administration: Mean serum [LDL] at week 8 [1, 4] [%] | Observed change following administration: Mean serum [LDL] in ≧72 mg/dl subpopulation at week 8 [1, 4] [%] | Observed change following administration: Mean serum [small LDL particle] at week 8 [1, 4] | Change in mean % en face lesion vs. control (ApoE−/− mice [3]) [%] | Mean % en face lesion (ApoE−/− mice [3]) [%] |
| --- | --- | --- | --- | --- | --- | --- | --- | --- | --- | --- | --- | --- | --- |
| O=C1[C@H](CC[C@H](O)c2ccc(F)cc2)[C@@H](c2ccc(O)cc2)N1c1ccc(F)cc1 [ezetimibe, reference compound] | −1.7 | – | – | – | – | – | – | – | – | – | – | – | – |
| CC[C@H](C)C(=O)O[C@H]1C[C@H](O)C=C2C=C[C@H](C)[C@H](CC[C@@H](O)C[C@@H](O)CC(=O)O)[C@H]21 [Statin, pravastatin, reference compound] | – | 14.500 | 1405.417 | 13.26 | 4.40 | 2.15 | 3.36 | −3.36 | −2.15 | −4.40 | +13.26% | −0.813 | 4.814 |
